Test results: patent US20090024021A1, “Methods and Systems for Using Transcranial Magnetic Stimulation and Functional Brain Mapping for Examining Cortical Sensitivity, Brain Communication, and Effects of Medication” (priority 2002, published 2009)
“Also recorded” adds a separate entry of the source.

Columns and labels:
left motor cortex = assay: Interleaved TMS/phMRI (BOLD fMRI) with TMS over motor cortex; format: in vivo, human; conditions: for Voxels, effect of LTG (between day) / Z-score, effect of LTG (between day): Motor Cortex Stimulation, Placebo-LTG; for Z-score, effect of LTG (between day): p < .001
Procedure: (§1) Study design: We performed a randomized, double-blind, crossover trial involving two visits at least one week apart (FIG. 8). […] Serum LTG levels, RMTs, and interleaved TMS/phMRI images during both motor and then prefrontal TMS were then gathered for each subject. One week later they received LTG or placebo again, followed by identical RMT and interleaved TMS/phMRI studies.
Combined TMS and MRI: Immediately following RMT determination, interleaved TMS/phMRI acquisitions were performed in a Picker EDGE 1.5 T MR scanner with actively shielded magnet and high-performance gradients (27 mT/m, 72 T/m/sec) using a typical gradient echo, echo planar imaging (EPI) fMRI sequence (tip angle=90, TR=3 sec, FOV 27.0 cm, fifteen 7 mm thick slices, 1 mm gap). TMS was delivered using a Dantec MagPro with a special nonferromagnetic TMS coil of figure-8 design with an 8-meter cable (Dantec Medical A/S, Skovlunde, Denmark) and a room set up identical to prior TMS/fMRI studies from our group. TMS pulses and the fMRI sequence were interleaved as described before^21. Each cycle, illustrated in FIG. 9, consisted of six 21-sec sub-cycles—four Test and two task (100% RMT stimulation and 120% RMT stimulation). During each sub-cycle, the scanner acquired seven sets of 15 transverse images. During the task sub-cycles the TMS was triggered 100 ms after every […] image acquisition to produce a TMS stimulation rate of 1 Hz. The entire TMS/fMRI sequence lasted 882 sec (14.7 min).
TMS Coil Placement in the MRI scanner: Motor cortex: Before being placed into the MRI scanner, subjects had their resting motor threshold (RMT) quickly determined with the Dantec TMS while sitting on the MRI gantry. For many reasons (different capacitors, coil design, length of cable, MRI filter), the RMT determined with the Magstim in the BSL was not the same RMT needed inside the MRI scanner with the Dantec. After this new MRI RMT was determined, the TMS coil was rigidly mounted in the MR head coil with a specially designed TMS coil-holder, adjustable in six dimensions^22. Subjects wore swim caps and special earplugs. With the head coil on the gantry outside the scanner bore, subjects inserted their head into the head coil and adjusted their position while the TMS coil was intermittently pulsed with 100% RMT. Subjects adjusted their head until pulsing the coil caused visible movement of the contralateral (right) hand APB (3 out of 6). As soon as a subject's new MRI RMT-correct scalp location was determined, the holder's six dimensions and earplugs were locked. These head holder settings and RMT were recorded and used with the second visit. During the second MRI visit a week later, the headholder was set with the previous week's coordinates for that subject, and the previous RMT was used for the second visit.
Individual fMRI Data Analyses: MR scans were transferred into ANALYZE format and then further processed on Sun workstations (Sun Microsystems, Palo Alto, Calif.). Scans were checked using MEDx3.3 (Sensor Systems Inc, Sterling, Va.) for movement across runs, and then were coregistered to a mean image using automatic image registration. For all subjects, movement across the 14.7-minute study was less than 2 mm in all 3 axes. After correction of motion, we used a delayed boxcar model, employed a high-pass filter to remove signal drift, cardiac and respiratory effects, and other low frequency artifacts. Then, we spatially transformed each subject's data into the Talairach Atlas (input voxel dimensions, 2.1×2.1×8 mm, to output voxel dimensions, 4×4×4 mm), smoothed (4×2 mm) the data and generated z map with the Statistical Parametric Mapping (SPM) 96 module in MEDx3.3. We assumed an uncorrected F threshold UF P>0.99 to preserve as many voxels as possible for the cluster analysis.
Group fMRI Data Analyses: All subject's unthresholded z maps were combined based on comparison of condition (TMS vs Rest), intensity (100% RMT-TMS vs 120% RMT-TMS), visit (LTG vs Placebo). […]

[1] = single oral dose of 325 mg of LTG; transiently (for 3 hours); cited from earlier work
[2] = Safety and tolerability in the crossover trial; format: in vivo, human; conditions: single oral dose of 325 mg LTG; healthy young men
Procedure: as §1
General Procedure: After arriving at the laboratory in the early afternoon, baseline RMT was determined and baseline plasma levels of LTG were drawn. They were then given a single oral dose of 325 mg LTG or placebo. They then waited quietly for 3 hours. Three hours after taking the oral pill, RMT was determined and serum plasma levels were again drawn.

## Nc1nnc(-c2cccc(Cl)c2Cl)c(N)n1 [LTG, Lamotrigine]
Left motor cortex; 120% RMT minus rest over motor cortex, 10 subjects, Wilcoxon p=0.05
  number of active voxels in the motor cortex underneath the TMS coil, compared with placebo: significantly decreased
Left motor cortex; LTG day, within day, n = 10, 100% RMT-Rest, Left cingulate gyrus (BA 32), Talairach −4,32,28
  Z-score, region of activation: 3.97
Left motor cortex; LTG day, within day, n = 10, 100% RMT-Rest, Left insula (BA 13), Talairach −36,20,12
  Z-score, region of activation: 3.98
Left motor cortex; LTG day, within day, n = 10, 100% RMT-Rest, Left middle frontal gyrus (BA 46), Talairach −44,40,24
  Z-score, region of activation: 4.59
Left motor cortex; LTG day, within day, n = 10, 100% RMT-Rest, Right insula (BA 13), Talairach 36,8,12
  Z-score, region of activation: 4.26
Left motor cortex; LTG day, within day, n = 10, 100% RMT-Rest, Right middle frontal gyrus (BA 6), Talairach 32,8,52
  Z-score, region of activation: 4.06
Left motor cortex; LTG day, within day, n = 10, 100% RMT-Rest, Right postcentral gyrus (BA 3), Talairach 52,−16,40
  Z-score, region of activation: 3.18
Left motor cortex; LTG day, within day, n = 10, 100% RMT-Rest, Right precentral gyrus, Talairach 40,−4,32
  Z-score, region of activation: 4.31
Left motor cortex; LTG day, within day, n = 10, 120% RMT-100%
  Region of activation: No activity
Left motor cortex; LTG day, within day, n = 10, 120% RMT-Rest, Left medial frontal gyrus (BA 6), Talairach −4,60,0
  Z-score, region of activation: 4.06
Left motor cortex; LTG day, within day, n = 10, 120% RMT-Rest, Left postcentral gyrus (BA 2), Talairach −36,0,4
  Z-score, region of activation: 4.60
Left motor cortex; LTG day, within day, n = 10, 120% RMT-Rest, Left superior temporal gyrus, Talairach −60,8,24
  Z-score, region of activation: 3.14
Left motor cortex; LTG day, within day, n = 10, 120% RMT-Rest, Left thalamus, Talairach −32,8,−24
  Z-score, region of activation: 6.46
Left motor cortex; LTG day, within day, n = 10, 120% RMT-Rest, Right cingulate gyrus, Talairach 4,28,−16
  Z-score, region of activation: 4.33
Left motor cortex; LTG day, within day, n = 10, 120% RMT-Rest, Right middle frontal gyrus (BA 9), Talairach 48,36,12
  Z-score, region of activation: 4.62
Left motor cortex; LTG day, within day, n = 10, 120% RMT-Rest, Right superior temporal gyrus (BA 38), Talairach 40,−12,4
  Z-score, region of activation: 3.14
Left motor cortex; Cerebellum, Right
  Voxels, effect of LTG (between day): 70
Left motor cortex; Cerebellum, Right, Talairach 13,−46,−23
  Z-score, effect of LTG (between day): 3.34
Left motor cortex; Left Precentral gyrus (underneath TMS coil)
  Voxels, effect of LTG (between day): 82
Left motor cortex; Left Precentral gyrus (underneath TMS coil), Talairach −32,−24,52
  Z-score, effect of LTG (between day): 3.87
Left motor cortex; Posterior Cingulate, Left
  Voxels, effect of LTG (between day): 93
Left motor cortex; Posterior Cingulate, Left, Talairach −1,−25,50
  Z-score, effect of LTG (between day): 3.95
Left motor cortex; Precuneus, Left
  Voxels, effect of LTG (between day): 132
Left motor cortex; Precuneus, Left, Talairach −1,−62,50
  Z-score, effect of LTG (between day): 3.48
Left motor cortex; formal between-day analysis, group data in 10 subjects
  TMS-induced activation in the motor cortex (underneath the coil) and other regions, compared to placebo: significantly less; also recorded: reduced
Left motor cortex; left primary motor cortex beneath the coil, 10 subjects, ANOVA F=11.89, p=0.007
  % BOLD signal change in motor cortex compared with placebo: significantly decreased
[1]
  serum concentrations after single oral dose: equal to steady state levels at clinically relevant chronic doses
[2]
  adverse effects of the drug treatment or the stimulation: None of the subjects reported experiencing adverse effects
